Values of other authors as cited in US6537525B1, “Medicated chewing-gum” (priority 1997, dated 2003).

Legend:
[1] = antacid; versus magnesium trisilicate or magnesium carbonate
[2] = tested on: esophageal lesions associated with heartburn; conditions: versus placebo or ranitidine

## [O]=[Mg] [Magnesium oxide, magnesium oxide]
[1]
  potency relative to magnesium trisilicate or magnesium carbonate: 8 to 10 times

## NC(N)=Nc1nc(CSCCC(N)=NS(N)(=O)=O)cs1 [Famotidine]
[2]
  effectiveness in the healing of esophageal lesions associated with heartburn: significantly more effective than placebo or ranitidine
